PubChem BioAssay AID248 (DTP/NCI, 2004)
Several values for one entry are separate records, joined by “and”; a condition that tells them apart may be missing. Equal values may be shown once. Toxic doses and inconclusive results are not listed. Rule as the data show it: active = T/C of 150% or more; inactive = T/C below 125%.

Test system: L1210 leukemia ip in BDF1 mice, survival T/C
Assay: NCI In Vivo Anticancer Drug Screen. Data for tumor model L1210 Leukemia (intraperitoneal) in B6D2F1 (BDF1) mice
Conditions: endpoint: mean survival time, higher = longer survival
Method in brief: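 In this screen, tumor-bearing mice given compound are compared to those given vehicle, and their survival values are reported as a treated-to-control quotient.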

[1] = dose: 50.0 mg/kg/injection, schedule: Q01DX009 (ip), vehicle: saline
[2] = dose: 100.0 mg/kg/injection, schedule: Q04DX003 (ip), vehicle: saline
[3] = dose: 200.0 mg/kg/injection, schedule: Q04DX003 (ip), vehicle: saline
[4] = dose: 400.0 mg/kg/injection, schedule: Q04DX003 (ip), vehicle: saline

Measured: T/C

CCCCCCCCCCCN1C(=O)c2ccccc2S1(=O)=O
inactive: dose: 222.0 mg/kg/injection, schedule: Q01DX Z (ip), vehicle: methylcellulose (MC) 91 % of control | dose: 333.0 mg/kg/injection, schedule: Q01DX Z (ip), vehicle: methylcellulose (MC) 105 % of control | dose: 500.0 mg/kg/injection, schedule: Q01DX Z (ip), vehicle: methylcellulose (MC) 102 % of control

CC(=O)OC1/C=C/C(C)=C/CC(O)/C=C/C(C)=C/C(NC(=O)C(C)=O)C2(C)C(=O)OC(C1)C(C)C2=O (stereo not drawn)
inactive: dose: 25.0 mg/kg/injection, schedule: Q01DX001 (ip), vehicle: saline with Tween-80 102 % of control | dose: 25.0 mg/kg/injection, schedule: Q01DX009 (ip), vehicle: saline with Tween-80 101 % of control | dose: 50.0 mg/kg/injection, schedule: Q01DX001 (ip), vehicle: saline with Tween-80 94 % of control | dose: 50.0 mg/kg/injection, schedule: Q01DX009 (ip), vehicle: saline with Tween-80 104 % of control | dose: 100.0 mg/kg/injection, schedule: Q01DX001 (ip), vehicle: saline with Tween-80 97 % of control | dose: 100.0 mg/kg/injection, schedule: Q01DX009 (ip), vehicle: saline with Tween-80 103 % of control

CCOC(=O)OC1CC/C(=N\N=C(N)N)C1 (stereo not drawn)
inactive: dose: 15.0 mg/kg/injection, schedule: Q01DX Z (ip), vehicle: methylcellulose (MC) 110 % of control | dose: 30.0 mg/kg/injection, schedule: Q01DX Z (ip), vehicle: methylcellulose (MC) 96 % of control | dose: 120.0 mg/kg/injection, schedule: Q01DX Z (ip), vehicle: methylcellulose (MC) 92 % of control

O=[N+]([O-])c1ccccc1/C=N/N1CCN(/N=C/c2ccccc2[N+](=O)[O-])CC1
inactive: dose: 200.0 mg/kg/injection, schedule: Q01DX001 (ip), vehicle: carboxymethylcellulose (CMC) 89 % of control | dose: 400.0 mg/kg/injection, schedule: Q01DX001 (ip), vehicle: carboxymethylcellulose (CMC) 89 % of control

C[n+]1c(I)ccc2ccccc21
inactive: dose: 100.0 mg/kg/injection, schedule: Q01DX001 (ip), vehicle: other 105 % of control | dose: 200.0 mg/kg/injection, schedule: Q01DX001 (ip), vehicle: other 105 % of control | dose: 400.0 mg/kg/injection, schedule: Q01DX001 (ip), vehicle: other 110 % of control

O=C(N/N=C/c1c[nH]c2ccccc12)C1CCCO1 (stereo not drawn)
inactive: dose: 100.0 mg/kg/injection, schedule: Q01DX009 (ip), vehicle: Klucel (hydroxypropylcellulose) (HPC) 98 % of control | dose: 200.0 mg/kg/injection, schedule: Q01DX009 (ip), vehicle: Klucel (hydroxypropylcellulose) (HPC) 98 % of control | dose: 400.0 mg/kg/injection, schedule: Q01DX009 (ip), vehicle: Klucel (hydroxypropylcellulose) (HPC) 94 % of control

CCCC(=O)N(CC(C)C)CC(C)C
inactive: dose: 100.0 mg/kg/injection, schedule: Q04DX003 (ip), vehicle: Klucel (hydroxypropylcellulose) (HPC) 101 % of control | dose: 200.0 mg/kg/injection, schedule: Q04DX003 (ip), vehicle: Klucel (hydroxypropylcellulose) (HPC) 95 % of control | dose: 400.0 mg/kg/injection, schedule: Q04DX003 (ip), vehicle: Klucel (hydroxypropylcellulose) (HPC) 97 % of control

O=C1Nc2ccc(Cl)cc2C1=O
inactive: dose: 75.0 mg/kg/injection, schedule: Q01DX001 (ip), vehicle: saline 90 % of control | dose: 150.0 mg/kg/injection, schedule: Q01DX001 (ip), vehicle: saline 93 % of control | dose: 300.0 mg/kg/injection, schedule: Q01DX001 (ip), vehicle: saline 93 % of control

CCN(CC)CCCNc1cc(Cl)c(Cl)cc1[N+](=O)[O-]
inactive: dose: 12.0 mg/kg/injection, schedule: Q01DX009 (ip), vehicle: saline 104 % of control | dose: 25.0 mg/kg/injection, schedule: Q01DX009 (ip), vehicle: saline 95 % of control | [1] 91 % of control | [2] 95 % of control | [3] 90 % of control | [4] 96 % of control

OCCC#CCCOC1CCCCO1 (stereo not drawn)
inactive: dose: 100.0 mg/kg/injection, schedule: Q04DX002 (ip), vehicle: saline with Tween-80 93 % of control | dose: 200.0 mg/kg/injection, schedule: Q04DX002 (ip), vehicle: saline with Tween-80 103 % of control | dose: 400.0 mg/kg/injection, schedule: Q04DX002 (ip), vehicle: saline with Tween-80 103 % of control

O=C1/C=C2/C=CC=CN2C(=O)/C=C2/C=CC=CN12
inactive: dose: 50.0 mg/kg/injection, schedule: Q01DX001 (ip), vehicle: saline 104 % of control | dose: 100.0 mg/kg/injection, schedule: Q01DX001 (ip), vehicle: saline 101 % of control | dose: 200.0 mg/kg/injection, schedule: Q01DX001 (ip), vehicle: saline 104 % of control | dose: 400.0 mg/kg/injection, schedule: Q01DX001 (ip), vehicle: saline 97 % of control

CCCC(/C=N\NC(=O)c1ccc[n+](C)c1)CC (stereo not drawn)
inactive: [1] 103 % of control | dose: 100.0 mg/kg/injection, schedule: Q01DX009 (ip), vehicle: saline 103 % of control | dose: 200.0 mg/kg/injection, schedule: Q01DX009 (ip), vehicle: saline 100 % of control

CC(C)C1C(=O)N2CCCC2C2(O)OC(C(=O)NCCc3ccccc3)(C(C)C)C(=O)N12 (stereo not drawn)
inactive: dose: 25.0 mg/kg/injection, schedule: Q04DX003 (ip), vehicle: alcohol 98 % of control | dose: 50.0 mg/kg/injection, schedule: Q04DX003 (ip), vehicle: alcohol 105 % of control and 100 % of control | dose: 100.0 mg/kg/injection, schedule: Q04DX003 (ip), vehicle: alcohol 100 % of control and 104 % of control | dose: 200.0 mg/kg/injection, schedule: Q04DX003 (ip), vehicle: alcohol 100 % of control and 102 % of control | dose: 400.0 mg/kg/injection, schedule: Q04DX003 (ip), vehicle: alcohol 93 % of control

NC(=O)c1cc(NCCO)c([N+](=O)[O-])cc1[N+](=O)[O-]
inactive: dose: 100.0 mg/kg/injection, schedule: Q01DX001 (ip), vehicle: Klucel (hydroxypropylcellulose) (HPC) 104 % of control | dose: 200.0 mg/kg/injection, schedule: Q01DX001 (ip), vehicle: Klucel (hydroxypropylcellulose) (HPC) 100 % of control | dose: 400.0 mg/kg/injection, schedule: Q01DX001 (ip), vehicle: Klucel (hydroxypropylcellulose) (HPC) 96 % of control

CN(C)C(=O)C1C2C=CC(C3CC23)C1C(=O)N(C)C (stereo not drawn)
inactive: [2] 95 % of control | [3] 90 % of control | [4] 95 % of control
